Consider six molecules from US20260327211A1, “MODULATORS OF A POTASSIUM CHANNEL AND OF TRPV1 CHANNEL AND USES THEREOF” (Bsense Bio Therapeutics Ltd., priority 2023, published 2026).

The structures appear in SMILES notation. Read-outs that look alike come from different tables or passages of the source.

Data set [1] in a line: Metabolite identification (Met-ID), human hepatocytes. It counts as in vitro ADME. Here is the method: Cell culture and incubation: Cryopreserved hepatocyte cells, from human and rat sources, were purchased from commercial sources or in-house production, and were cultured in Williams' Medium E supplemented with glutamine and HEPES, in a humidified 5% CO2 incubator at 37° C., to a cell density of […]. Then, solutions of test compounds at a concentration of 10 μM, or 7-Ethoxycoumarin, as a positive control, at a concentration of 30 μM, in Eagle's Minimum Essential Medium, Catalog No. 30-2003 (ATCC) supplemented with 20% fetal bovine serum, were introduced and the mixture was incubated for 120 minutes, or other specified time points.
The samples were analyzed for metabolites using an LC-MS method developed on […] and PDA systems. Comparative analyses of mass spectra and ion fragmentation between the parent compound and its metabolites were carried out, and metabolic profiling was determined using the mass spectrometric and/or PDA (UV) response. Hypothetical structures of metabolites and their metabolic pathways were proposed.

A short description of another data set: Rat pharmacokinetics. It counts as in vivo. As to conditions: for clearance: read-out: PK: Cl; for bioavailability: po, 10 mg/kg; for half-life: read-out: PK: T1/2 (converted). As for the experimental part: The pharmacokinetic (PK) properties of test compound following single intravenous (IV) bolus and oral gavage (PO) administration in male Sprague-Dawley (SD) rats were determined in this study.
Test compound administration: Six male Sprague Dawley (SD) rats were divided into two designated groups, Group 1 and Group 2, each composed of three rat subjects. Group 1 animals were subjected to a single intravenous bolus administration of the test compound at a dosage of 1 mg/kg. Group 2 animals were administered with the test compound orally in a single dose, at a concentration of 10 mg/kg. Throughout the study, the animals had unhindered access to food. The test compound was administered at a concentration of 0.5 mg/mL and dose volume of 2 mL/kg for Group 1, and at a concentration of 1 mg/mL and dose volume of 10 mL/kg, for Group 2.
Sample extraction and analysis: Plasma samples were systematically collected at varying time points of 0.083 (only for Group 1), 0.25, 0.5, 1, 2, 4-, 6-, 8-, and 24-hours post-dose. LC-MS/MS was used to determine the test compound's concentration within the collected plasma samples. Data reflecting plasma concentration in correlation to time were graphically represented and subjected to a non-compartmental analysis using the Phoenix WinNonlin 6.3 software program. The resulting pharmacokinetic parameters, including Clearance (Cl), Volume of distribution at steady state (Vdss) and initial concentration (C0) for intravenous administration; peak concentration (Cmax), time of peak concentration (Tmax), and bioavailability (% F) for extravascular administration; and half-life (T1/2), Area Under Curve from time zero to time t (AUC(0-t)), Area Under Curve from time zero to infinity (AUC(0-inf)), Mean Residence Time from time zero to time t (MRT(0-t)), Mean Residence Time from time zero to infinity (MRT(0-inf)) for all routes, were systematically calculated.

Another data set in a line: Rat hepatocyte stability. It counts as in vitro ADME. As to conditions: hepatocytes; for half-life: read-out: Hepatocytes (rat) T1/2.
Another data set deals with T1, Kv7.1 (Homo sapiens, UniProt P51787).
T1 construct: Eurofins DiscoverX, USA (assay provider)
T1 sequence (P51787 whole entry): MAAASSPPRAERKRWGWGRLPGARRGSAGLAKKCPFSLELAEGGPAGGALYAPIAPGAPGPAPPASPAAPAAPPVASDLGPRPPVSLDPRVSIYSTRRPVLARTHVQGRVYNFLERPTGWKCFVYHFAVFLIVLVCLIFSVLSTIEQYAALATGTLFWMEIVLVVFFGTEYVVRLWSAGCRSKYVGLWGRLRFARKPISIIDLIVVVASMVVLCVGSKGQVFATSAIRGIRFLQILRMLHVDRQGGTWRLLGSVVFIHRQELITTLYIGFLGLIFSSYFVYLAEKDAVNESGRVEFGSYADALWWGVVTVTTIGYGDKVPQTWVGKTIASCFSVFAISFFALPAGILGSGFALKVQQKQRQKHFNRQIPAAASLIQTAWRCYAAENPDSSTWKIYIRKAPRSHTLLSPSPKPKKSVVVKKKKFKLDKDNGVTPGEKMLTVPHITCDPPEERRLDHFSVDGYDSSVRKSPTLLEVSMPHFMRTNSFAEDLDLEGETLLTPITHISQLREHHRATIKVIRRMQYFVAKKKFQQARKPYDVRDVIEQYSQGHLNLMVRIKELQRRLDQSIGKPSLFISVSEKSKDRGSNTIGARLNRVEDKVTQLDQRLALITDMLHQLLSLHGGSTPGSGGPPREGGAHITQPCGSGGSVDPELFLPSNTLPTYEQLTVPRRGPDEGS
The experiment in a line: Kv7.1. In kind it is biochemical. Here is the method:
A broad panel of 78 recombinant targets was tested for pharmacologic activity in vitro through a variety of functional assays (Eurofins DiscoverX, USA), as part of the National Institute of Neurological Disorders and Stroke (NINDS) Preclinical Screening Platform for Pain (PSPP) program. The biological targets for the in vitro profiling have been selected based on avoiding opioid receptor stimulation and targets known to be associated with adverse events or targeted by drugs of abuse. […] For each test, a reference compound was evaluated at the target of interest as a positive control.

The next data set deals with MIA-OA rats. The experiment in a line: Monosodium iodoacetate-induced osteoarthritis (MIA-OA) pain model. It counts as in vivo, rat. Here is the method: All animal experiments were carried out according to the Guide for the Care and Use of Laboratory Animals (2011 edition) and approved by the Israel National Institutional Animal Care and Use Committee (IACUC). Young adult male SD rats (Envigo RMS, Israel), were used for in vivo efficacy: Spared Nerve Injury (SNI), Distal Tibial Injury (DTI) and Post-operative Pain (POP), 200-220 grams, Chronic Post-Ischemia Pain (CPIP) 275-325 grams, Monosodium iodoacetate-induced osteoarthritis (MIA-OA) 180-220 grams; for in vivo safety: 200-250 grams at study initiation. […] The health status of the animals used in this study was examined upon their arrival. Only animals in good health were acclimatized to laboratory conditions and were used in the studies. All studies were performed following at least five days of animal acclimation. During acclimation and throughout the entire study duration, animals were housed within a limited-access rodent facility and kept in groups with a maximum of 2-3 rats per polypropylene cage. The cages were fitted with solid bottoms and filled with sterile wood shavings as bedding material. Animals were provided ad libitum with a commercial, sterile rodent diet and had free access to drinking water that was supplied to each cage via polyethylene bottles with stainless steel sipper tubes. A feed lot analysis of the diet batch used in the study was included in the archives with the study data. Water was monitored periodically. Plastic cylinders for playing and hiding and wooden balls or sticks were added to the cages for environmental enrichment.
Monosodium iodoacetate-induced osteoarthritis (MIA-OA): The animals were anaesthetized using an Isoflurane+O2 mixture. Then 50 μl of MIA at a concentration of 60 mg/mL was injected into the right knee joint using a 30 G needle. On study days 13 and 14 following MIA injection, the animals' dynamic weight bearing and response to von Frey filaments were measured.
Mechanical Allodynia (Von Frey): The rats were placed in an enclosure and positioned on a metal mesh surface but allowed to move freely. […]

Setting [2] is: rat, plasma, read-out: PK: Oral BA.

In the case of `O=C(Cc1ccnc(-n2cc(Cl)c3cc(Cl)cc(Cl)c32)n1)N[C@@H]1COC[C@H]1O` [Compound 820], in data set [1] (human hepatocytes), the “Human Hepatocytes MetID (glutathione conjugation)” value was “did not indicate the presence of glutathione conjugation and None”.

Consider `O=C(Cc1cncc(-n2cc(Cl)c3cc(Cl)cc(Cl)c32)c1)N[C@@H]1COC[C@H]1O` [Compound 661], for which, in the data set “Rat pharmacokinetics” (10 mg/kg oral), the “Multiple of free plasma exposure over IC50 (rat DRG)” value came to 30 fold. For the same molecule, in the data set “Rat pharmacokinetics” (10 mg/kg oral, 8 hours), the “Free plasma exposure, fu plasma C8 hour” value was determined as 0.09 nM. Besides, in “Rat pharmacokinetics” (oral, extrapolated from 10 mg/kg), the “Dose from which efficacious levels are expected” value is listed as 2 mg/kg. Also, in the data set “Rat pharmacokinetics” (rat, plasma, iv, 1 mg/kg), the clearance is 35.7 mL/min/kg. Further, in the data set “Rat pharmacokinetics” (setting [2]), the bioavailability turned out to be 28.8%. The half-life in “Rat pharmacokinetics” (rat, plasma) is 149 min; in “Rat hepatocyte stability” it was 5.7 min. Moreover, the CLint scaled in “Rat hepatocyte stability” is 1140 mL/min/kg. For the same molecule, on Kv7.1 (up to solubility limit), the Kv7.1 activity entry was “no measurable activity at any concentration tested”. The “Metabolites M1-M7 (glutathione conjugation), share of identified metabolites” value in data set [1] is on record as 2.09%. In the data set on MIA-OA rats (100 mg/kg, 6 hour post-dose), the “Reversal of PWT” value is given as 33%.

On to `O=C(Cc1cc(-n2cc(Cl)c3cc(Cl)cc(Cl)c32)ccc1F)NCCO` [Compound 627], for which the clearance in the data set “Rat pharmacokinetics” (rat, plasma, iv, 1 mg/kg) amounted to 65.8 mL/min/kg. The bioavailability in the data set “Rat pharmacokinetics” (setting [2]) is 25.3%. In the data set “Rat pharmacokinetics” (rat, plasma), the half-life was 88.8 min. In the data set “Rat hepatocyte stability”, the CLint scaled stood at 514 mL/min/kg and the half-life amounted to 12.6 min.

As for `Cc1cn(-c2ccc(F)c(CC(=O)NCC(C)(C)O)c2)c2c(Cl)cc(Cl)cc12` [Compound 421], the clearance in the data set “Rat pharmacokinetics” (rat, plasma, iv, 1 mg/kg) is 38.5 mL/min/kg. Further, in the data set “Rat pharmacokinetics” (setting [2]), the bioavailability turned out to be 10.6%.

Turning to `O=C(Cc1nccc(-n2cc(Cl)c3cc(Cl)cc(Cl)c32)n1)NC1COCC1O` (stereo not shown) [Compound 760], in “Rat pharmacokinetics” (rat, plasma, iv, 1 mg/kg), the clearance is 60.1 mL/min/kg. Besides, the Vd in “Rat pharmacokinetics” (rat, plasma, iv, 1 mg/kg, read-out: Volume of distribution at steady state (Vdss)) worked out at 2.37 L/kg. Also, the bioavailability in the data set “Rat pharmacokinetics” (rat, plasma, read-out: Oral bioavailability) was determined as 48.6%. In addition, in the data set “Rat pharmacokinetics” (rat, plasma), the half-life was 161 min. For the same molecule, at Kv7.1 (up to 10 micromolar), the “Effect on Kv7.1” value is on record as “no effect”. Also, in data set [1] (human hepatocytes), the “Human Hepatocytes MetID (glutathione conjugation)” value is “did not indicate the presence of glutathione conjugation and None”. The “Pain relief in osteoarthritic pain model” value in the data set with MIA-OA rats (3-30 mg/kg PO, vs naproxen 30 mg/kg PO) is “superior in both effect and duration to high dose of naproxen”. The minimal effective dose in the data set on MIA-OA rats (Rattus norvegicus, po, read-out: Effective dose, osteoarthritic pain) fell in the range of 3 to 30 mg/kg.

With `O=C(Cc1cc(-n2cc(C(F)(F)F)c3cc(Cl)cc(Cl)c32)ncn1)NCCO` [Compound 843], in the data set “Rat pharmacokinetics” (rat, plasma, iv, 1 mg/kg), the clearance was determined as 6.6 mL/min/kg. Also, the bioavailability in “Rat pharmacokinetics” (setting [2]) came to 73.4%. Further, in data set [1] (human hepatocytes), the “Human Hepatocytes MetID” value was 0.2% and the “Human Hepatocytes MetID (glutathione conjugation)” value is reported as “did not indicate the presence of glutathione conjugation”.
